System: GUMC-403
Test: viability at highest tested concentration (max response) relative to DMSO (% of DMSO control); higher = less cytotoxic
Details: library / dose series: MIPE library, 11-point 1:3 dilution, 48 h
Outline: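 This value is viability at the highest tested concentration relative to vehicle control. GUMC-403 papilloma cells from a patient, grown by conditional reprogramming, were plated at 700/well in 1536-well plates and given 23 nL of compound by pin tool for 48 h. CellTiter-Glo luminescence on a ViewLux was normalised with vehicle wells at 100% and empty wells at 0%.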

Row | Compound | viability (top concentration 46.1 µM) | other results
1 | CO[C@H]1/C=C/O[C@@]2(C)Oc3c(C)c(O)c4c(c3C2=O)C2=NC3(CCN(CC(C)C)CC3)NC2=C(NC(=O)/C(C)=C\C=C\[C@H](C)[C@H](O)[C@@H](C)[C@@H](O)[C@@H](C)[C@H](OC(C)=O)[C@@H]1C)C4=O | 118 | 
2 | CC(C)(Oc1ccc(C2CC2(Cl)Cl)cc1)C(=O)O (centres undefined) |  | viability (top concentration 92.2 µM): 101
3 | Cn1cc(/C=C2\C(=O)Nc3cccnc32)c2ccccc21 | 132 | 
4 | Nc1nc(Cl)nc2c1ncn2[C@H]1C[C@H](O)[C@@H](CO)O1 | 120 | 
5 | Cc1nc(NC(=O)N2CCC[C@H]2C(N)=O)sc1-c1ccnc(C(C)(C)C(F)(F)F)c1 | 42.4 | 
6 | N[C@H]2CN(CC12CC1)c3c(F)cc4c(c3Cl)[N@@](C=C(C4=O)C(=O)O)C5C[C@H]5F (some centres undefined) | 103 | 
7 | O=C(CCCN1CCN(c2ccc(F)cc2)CC1)NC1c2ccccc2CSc2ccccc21 (centres undefined) | 93.5 | 
8 | Nc1ccccc1NC(=O)c1ccc(CNC(=O)OCc2cccnc2)cc1 | 110 | 
9 | COC1=C(N2CCNC(C)C2)C(=CC3=C1N(\C=C(C(O)=O)/C3=O)C4CC4)F (centres undefined) | 120 | 
10 | Cc1ccccc1C(C(=O)NC1CCCCC1)N(C(=O)CNc1ccc(C#N)cc1)c1cccc(F)c1 (centres undefined) | 108 | 
11 | N\C1=N\C2=C(N=C[N]2COC(CO)CO)C(=O)N1 | 43.9 | 
12 | CC(C)(C)[C@]1(O)C[C@@H]2OC(=O)C[C@@]23C(=O)O[C@@H]2OC(=O)[C@H](O)C213 (some centres undefined) | 99.4 | 
13 | CC(C)c1ccc(Cn2ccc3c4c(N)nc(NC5CC5)nc4ccc32)cc1 | 106 | 
14 | CCC(C)SSc1ncc[nH]1 (centres undefined) | 101 | 
15 | CN1[C@@H]2CC(OC(=O)[C@@H](CO)c3ccccc3)C[C@H]1[C@H]1O[C@H]12 (some centres undefined) |  | viability (top concentration 27.2 µM): 131
16 | Cc1cccc(CN2CCN(C(c3ccccc3)c3ccc(Cl)cc3)CC2)c1 (centres undefined) | 87.2 | 
17 | CCCC1=N[N](C)C2=C1\N=C(/NC2=O)C3=CC(=CC=C3OCC)[S+]([O-])(=O)N4CCN(C)CC4 | 74.6 | 
18 | O=C(CO)N1CCC(c2n[nH]c(-c3ccc(Cl)cc3)c2-c2ccncn2)CC1 | 109 | 
19 | CC(C)C(C)/C=C/C(C)C1CCC2C3=CC=C4CC(O)CCC4(C)C3CCC21C (centres undefined) | 130 | 
20 | c1ccc(-c2oc3ncnc(NC[C@@H]4CCCO4)c3c2-c2ccccc2)cc1 | 100 | 
21 | CCOC(=O)N1CCN(/[N+]([O-])=N/Oc2ccc([N+](=O)[O-])cc2C#N)CC1 | 92.1 | 
22 | O=C(O)c1ccc2c(c1)nc(Nc1cccc(Cl)c1)c1ccncc12 | 88.1 | 
23 | Cc1n[nH]c(C)c1Cc1sc2c(c1C(=O)N1C[C@H](O)CO1)c(=O)n(C)c(=O)n2CC(C)C | 119 | 
24 | COc1ccc(C2(C#N)CCC(C(=O)O)CC2)cc1OC1CCCC1 (centres undefined) | 123 | 
25 | CN(C)NC(=O)CCC(=O)O | 101 | 
26 | C[C@@H](c1ncncc1F)[C@](O)(Cn1cncn1)c1ccc(F)cc1F | 96.3 | 
27 | O=C1NC(=O)/C(=C/c2ccc3c(c2)OC(F)(F)O3)S1 | 94 | 

Row | Compound | viability (top concentration 46.1 µM) | other results
28 | CC(C)CN(C[C@@H](O)[C@H](Cc1ccccc1)NC(=O)O[C@H]1CCOC1)[S+](=O)([O-])c1ccc(N)cc1 | 109 | 
29 | CC[C@@]1(O)C(=O)OC\C2=C1\C=C3/N(CC4=CC5=C(C=CC(=C5CN(C)C)O)N=C34)C2=O | 66.5 | 
30 | CC/1=C(\CCN2CCC(CC2)C3=NOC4=C3C=CC(=C4)F)C(=O)N/5CCCCC5=N1 | 114 | 
31 | CNC(=O)c1ccc2c(c1)NC(=O)/C2=C(\Nc1cccc(CN(C)C)c1)c1ccccc1 | 107 | 
32 | COc1cc([C@H]2Oc3cc([C@H]4Oc5cc(O)cc(O)c5C(=O)[C@@H]4O)ccc3O[C@@H]2CO)ccc1O | 83.9 | 
33 | CCc1cc(Nc2nccc(-c3c(-c4ccc(OC)c(C(=O)Nc5c(F)cccc5F)c4)nc4ccccn34)n2)c(OC)cc1N1CCC(N2CCN([S+](C)(=O)[O-])CC2)CC1 | 122 | 
34 | Cc1nc2ccc(CN(C)c3ccc(C(=O)N[C@@H](CCC(=O)O)C(=O)O)s3)cc2c(=O)[nH]1 | 116 | 
35 | C[C@H](Cc1ccc(O)c(O)c1)[C@@H](C)Cc1ccc(O)c(O)c1 | 110 | 
36 | N[C@@H](Cc1c[nH]c2ccc(O)cc12)C(=O)O | 106 | 
37 | O=[N+]([O-])c1ncc[nH]1 | 82.9 | 
38 | CCN1\C=C(\C(O)=O)C(=O)C2=C1N=C(N3CCNCC3)C(=C2)F | 95.7 | 
39 | C=C(c1ccc(C(=O)O)cc1)c1cc2c(cc1C)C(C)(C)CCC2(C)C | 97.6 | 
40 | Cc1c(Cn2c(C)nc3c(C(=O)O)cc(N4CCOCC4)cc32)cccc1C(F)(F)F | 76.9 | 
41 | Cc1c(-c2cccc3c(CCCOc4cccc5ccccc45)c(C(=O)O)n(Cc4cccnc4)c23)c(COc2ccc(N3CCN([S+](=O)([O-])N(C)C)CC3)cc2)nn1C | 90.8 | 
42 | O=C(CN1C(=O)C2(CCCC2)NC[C@H]1c1cc(F)cc(F)c1)Nc1ccc2c(c1)C[C@@]1(C2)C(=O)Nc2ncccc21 | 148 | 
43 | O=C(Nc1ncc(SCCN2CCCC2)s1)[C@]1(c2ccc([S+](=O)([O-])C3CC3)cc2)C[C@H]1C1CCCCC1 | 108 | 
44 | COc1cc([C@@H]2c3cc4c(cc3[C@@H](O[C@@H]3O[C@@H]5CO[C@@H](c6cccs6)O[C@H]5[C@H](O)[C@H]3O)[C@H]3COC(=O)[C@H]23)OCO4)cc(OC)c1O | 56.7 | 
45 | CN(C)c1ccc(O)c2c1C[C@H]1C[C@H]3[C@H](N(C)C)C(O)=C(C(N)=O)C(=O)[C@@]3(O)C(O)=C1C2=O | 110 | 
46 | NC(=O)N/N=C/c1ccc([N+](=O)[O-])o1 | 135 | 
47 | CN1CCc2c(n(Cc3ccc(C(=O)NO)cc3)c3ccccc23)C1 | 107 | 
48 | O=C(NC1CC1)c1cccc(-c2ccc3c(NC(=O)C4CC4)n[nH]c3c2)c1 | 110 | 
49 | C=C(C)[C@@H]1CC[C@]2(C)CC[C@]3(C)[C@H](CC[C@@H]4[C@@]5(C)CC[C@H](O)C(C)(C)[C@@H]5CC[C@]43C)[C@@H]12 | 135 | 
50 | CCc1ccc(C(=O)Nc2cc(CN3CCN(C)CC3)cc(C(F)(F)F)c2)cc1C#Cc1cnc2ccnn2c1 | 119 | 
51 | CC(=O)Nc1ccc(OC[C@](C)(O)C(=O)Nc2ccc([N+](=O)[O-])c(C(F)(F)F)c2)cc1 | 88.4 | 
52 | C[C@]12CC(=O)[C@H]3[C@@H](CC\C4=C\C(=O)\C=C/[C@]34C)[C@@H]1CC[C@]2(O)C(=O)CO |  | viability (top concentration 23 µM): 131
53 | COC(=O)N[C@H](C(=O)N[C@@H](Cc1ccccc1)[C@@H](O)CN(Cc1ccc(-c2ccccn2)cc1)NC(=O)[C@@H](NC(=O)OC)C(C)(C)C)C(C)(C)C | 112 | 
54 | O=C1C(CCC(O)c2ccc(F)cc2)C(c2ccc(O)cc2)N1c1ccc(F)cc1 (centres undefined) | 94.9 | 

Row | Compound | viability (top concentration 46.1 µM) | other results
55 | COc1cc(NC(=O)c2ccc(-c3ccc(Cl)cc3)o2)cc(OC)c1 | 39.9 | 
56 | CC(=O)O[C@@]1(CC[C@H]2[C@@H]3\C=C(C)/C4=C/C(=O)CC[C@]4(C)[C@H]3CC[C@]12C)C(C)=O | 127 | 
57 | CO/N=C(/C(=O)N[C@@H]1C(=O)N2C(C(=O)O)=C(Cn3ccc(=N)n3CCO)CS[C@H]12)c1csc(N)n1 | 109 | 
58 | COc1ccc(Nc2nccc(NCCO)n2)cc1 | 99.9 | 
59 | NCCCC(N)(C(=O)O)C(F)F (centres undefined) | 114 | 
60 | S=C1N\C=N/C2=C1[NH]C=N2 | 103 | 
61 | CON(C)C(=O)N1\N=C(/S[C@]1(CCCN)C2=CC=CC=C2)C3=CC(=CC=C3F)F | 116 | 
62 | CN1[C@@H]2CC[C@H]1CC(OC(=O)c1c[nH]c3ccccc13)C2 (some centres undefined) | 134 | 
63 | COc1cc(C(=O)N2CCC(N3CCN(C)CC3)CC2)ccc1Nc1ncc2c(n1)N(C)c1ccccc1C(=O)N2C | 78.9 | 
64 | NC1(Cc2ccc(Cl)cc2)CCN(c2ncnc3[nH]ccc23)CC1 | 62.8 | 
65 | CC(=O)C1=C(O)C2(C)C(=CC1=O)Oc1c(C(C)=O)c(O)c(C)c(O)c12 (centres undefined) | 143 | 
66 | CCNC(=O)C[C@H]1/N=C(/C2=CC=C(Cl)C=C2)C3=CC(=CC=C3[N]4C(=NN=C14)C)OC | 93.5 | 
67 | O.O.CCN1CCN(C(=O)N[C@H](C(=O)N[C@H]2[C@@H]3SC\C(=C(/N3C2=O)C(O)=O)CSC4=NN=N[N]4C)C5=CC=C(O)C=C5)C(=O)C1=O |  | viability (top concentration 13.4 µM): 130
68 | CC[C@]12CC[C@H]3[C@@H](CCC/4=C/C(=O)CC[C@H]34)[C@@H]1\C=C/[C@@]2(O)C#C | 130 | 
69 | CN1CC(=O)\N=C1\NC(=O)NC2=CC(=CC=C2)Cl | 91.6 | 
70 | NCCCC(O)(P(=O)(O)O)P(=O)(O)O.O.O.O.[Na+] | 111 | 
71 | CCN(CC)CCCC(C)Nc1nc(C)cc(Nc2ccc3nc(C)cc(N)c3c2)n1 (centres undefined) | 106 | 
72 | CN[C@@H](C)C(=O)N[C@H]1CN(C(=O)CC(C)C)CC[C@H]2CC[C@@H](C(=O)NC(c3ccccc3)c3ccccc3)N2C1=O | 73.1 | 
73 | N=C(CCSCc1csc(N=C(N)N)n1)N[S+](N)(=O)[O-] | 124 | 
74 | O=S(=O)([O-])CCS.[Na+] | 147 | 
75 | N#Cc1c(C2CCNCC2)cc(-c2c(O)cccc2OCC2CC2)nc1N | 103 | 
76 | C[C@@H]1CC[C@@]2(CC[C@]3(C)\C(=C/C[C@@H]4[C@@]5(C)C[C@@H](O)[C@H](O)[C@@](C)(CO)[C@@H]5CC[C@@]34C)[C@@H]2[C@H]1C)C(O)=O | 114 | 
77 | CC/C(=C(\c1ccccc1)c1ccc(OCCN(C)C)cc1)c1ccccc1 | 96 | 
78 | C=C[C@H]1CN2CCC1C[C@@H]2[C@@H](O)c1ccnc2ccccc12 (some centres undefined) | 66.8 | 
79 | COc1cc(C(C)C)c(Oc2cnc(NC(CO)CO)nc2N)cc1I | 115 | 

Reference: the supplement of paper PMC6723410
